The values below come from article PMC8618880, “Discovery of GOT1 Inhibitors from a Marine-Derived Aspergillus terreus That Act against Pancreatic Ductal Adenocarcinoma” (Marine Drugs, 2021).

Molecules are shown by their SMILES.

In data set [1] the target is T1, GOT1 (Homo sapiens, UniProt P17174). The data set is described as follows: GOT1 enzymatic activity (inhibition) assay, MDH-coupled, absorbance 340 nm. In kind it is biochemical. The following applies: in vitro, read-out: GOT1-inhibitory activity IC50. The procedure:
The GOT1 enzymatic activity assay was carried out using a 96-well plate reader as previously reported. The 100 μL reaction system contained 0.1 mg/mL recombinant GOT1 protein, 1 mM α -KG, 1 mM NADH, 4 mM Asp, and 1 U/mL malate dehydrogenase, and measured absorbance at a wavelength of 340 nm. The degree of absorbance decrease was in direct proportion to GOT1 activity. The inhibitory activity in vitro was measured by adding different concentrations of compounds. SigmaPlot with the PlotEnzyme Kinetics Module was used to analyze the enzyme activity.

Data set [2] addresses T1, GOT1. The experiment in a line: Microscale thermophoresis (MST) binding to GOT1. Particulars: read-out: Kd value between AH and GOT1. The procedure:
The Monolith NTTM Protein Labeling Kit was used to test the binding capacity of proteins to AH, according to the manufacturer’s instructions. GOT1 was labeled and diluted in a buffer containing 20 mM HEPES (pH 7.5) and Tween-20 (0.5 (v/v)%), and then incubated with different concentration of AH for 10 min at 37 °C. Subsequently, the materials were put into standard capillary tubes and tested for thermophoresis using a Monolith NT.115 instrument (NanoTemper Technologies, München, Germany). The parameters were set to temperature 25 °C, LED power 100%, and laser power 40%, with a 30 s on-time. NTAnalysis software was used to calculate the Kd values.

Data set [3] relates to SW1990, PANC-1, and AsPC-1 cell lines. The experiment in a line: MTT cell viability assay, PDAC cell lines. It is filed as cell-based. The following applies: Homo sapiens, 48 h, read-out: cytotoxicity IC50. The protocol: (§1) Pancreas (SW1990, AsPC-1, PANC-1), colorectal (HCT116), breast (HCC1806, MM231, MM453), and ovarian cancer cells (ES2), along with a nonmalignant human pancreatic duct epithelial cell line (HDPE6C7), were obtained from ATCC, and were cultured in 1640 medium or Dulbecco’s modified Eagle medium (DMEM) supplemented with 10% (v/v) fetal bovine serum (FBS), 100 μg/mL streptomycin, and 100 U/mL penicillin. Cells were maintained in a humidified atmosphere of 5% CO2 at 37 °C. MTT (3-(4,5-dimethylthiazol-2-yl)-2,5-diphenyl tetrazolium bromide) assay was used to assess the cell viability. Briefly, cells were seeded in 96-well plates at a density of 5 × 10^3 cells per well for 24 h. Then, the medium was removed, and the cells were treated with different concentrations (0.1–100 μM) of AH, with DMSO as a vehicle control. After incubation for 48 h, 100 μL of MTT solution (2 mg/mL) was added to each well, and the wells were incubated at 37 °C for another 4 h. The formed formazan crystals were dissolved in DMSO (200 μL/well) and shaken for 5 min. Then, the absorbance of the solution was measured at 490 nm with a microplate reader. IC50 values were interpolated from the resulting dose-dependent curves using GraphPad Prism 7.0. The reported IC50 values are the average of three independent experiments, each consisting of six replicates per concentration level (overall n = 18).

The nature of data set [4]: MTT cell viability assay, nonmalignant pancreatic duct epithelial cells. It is filed as cell-based. Particulars: human, HPDE6C7 nonmalignant pancreatic duct epithelial cells, read-out: cytotoxicity IC50. The procedure: as §1
(In general: Formazan colour is commonly taken as a measure of viable cells.)

The subject of data set [5] is SW1990 cells. The data set is described as follows: Annexin V-FITC/PI apoptosis assay by flow cytometry. In kind it is cell-based, human. Particulars: 48 h. The protocol: The Annexin V–FITC apoptosis kit was purchased from USA BD PharMingen™. In brief, different concentrations of AH were added to the wells for 48 h, and then the cells were harvested, before being resuspended in Annexin-binding buffer and incubated with Annexin V–FITC (10 mg/mL) and PI in the dark for 15 min. Flow cytometry was used to detect the stained cells and analyze the apoptosis immediately.
(Flow cytometry measures light scatter and fluorescence of single cells or particles in a stream.)

In data set [6] the test system is SW1990 cells. The data set is described as follows: Cell cycle assay, PI staining, flow cytometry. In kind it is cell-based, human. The protocol: The phase distribution of DNA content was determined via propidium iodide (PI) staining. Cells were treated with varying doses of AH or vehicle for 48 h, and then the cell pellets were stained in the dark for 30 min with 60 μg/mL RNase A and 30 μg/mL PI. Finally, CellQuest software (Becton-Dickinson, Franklin Lakes, NJ, USA) was used to perform flow cytometric studies. Three separate experiments were used to determine the cell cycle.

For data set [7], the system named is SW1990 cells. The data set is described as follows: Metabolite abundance and NADPH/NADP+ ratio in cells. In kind it is cell-based, human. The following applies: AH 10, 20 or 40 µM. The procedure:
SW1990 cells were cultivated to around 50% confluence in DMEM media with 10 mM glucose, 2 mM glutamine, and 5% FBS. A complete medium was prepared prior to two hours of metabolite collection. Quantification kits were used to determine the abundance of Asp (Abcam, #ab102512, Cambridge, UK), Gln (BioVision, #K55, San Francisco, CA, USA), malate (BioVision, #K637, San Francisco, CA, USA), and OAA (Abcam, #ab83428, Cambridge, UK). According to the manufacturer’s instructions, we collected some cells and homogenized them in the buffers provided. The supernatants were centrifuged, and then deproteinized using a 10 K spin column before being analyzed and compared to standard curves.

Data set [8] concerns SW1990 cells. The data set is described as follows: Intracellular ROS measurement with DCFDA. Particulars: AH 10, 20 or 40 µM. It is filed as cell-based, human. From the text:
GOT1 is a key enzyme that is involved in the production of Gln-dependent NADPH in PDAC, and catalyzes the reversible conversion of Asp to OAA. To investigate the effects of AH on Gln metabolism, the associated metabolites including OAA and malate (Mal) were detected. […] As excessive reactive oxygen species (ROS) can enhance cellular oxidative stress—resulting in damage to DNA, proteins, or lipids, causing apoptosis or necrosis [29]—we examined the physiological correlation between AH treatment and ROS response. 2,7-Dichlorofluorescein diacetate (DCFDA) was used to measure the intracellular ROS levels.

The test system of data set [9] is SW1990 cells. The data set is described as follows: EDU staining and wound-healing cell migration test. It is filed as cell-based, human. The following applies: 0-40 µM, 0-48 h. The protocol: SW1990 cells were seeded in 6-well plates for 24 h. Each well was scratched with a 10 μL pipette tip, and then the plate was washed with PBS to peel off the suspended cells, before adding different concentrations of AH (0–40 μM). Images from the same area of the wound were taken separately under a microscope from 0 to 48 h.

Another data set concerns SW1990 xenografts. The data set is described as follows: SW1990 xenograft in CB-17/SCID mice. It is filed as in vivo. The procedure: Animal treatment and experiments were conducted in the Experimental Animal Center. Commercial 8-week-old CB-17/SCID mice (male) were purchased from Huafukang, China. After being resuspended using 0.1 mL of PBS, SW1990 cells (3 × 10^6) were injected subcutaneously into the lower flanks of the mice. When the tumors attained a diameter of ~3 mm, the mice were randomly divided into three groups—2.5 mg/kg, 5 mg/kg, and control—and were subsequently injected intraperitoneally with normal saline or AH every day. A Vernier caliper was used to measure the size of the tumors. After two weeks of therapy, mice were euthanized under deep anesthesia (chloral hydrate, 10%, 10 μL/g), and tumor tissue metabolites were detected using the above method. All animal studies were carried out in accordance with the Huazhong University of Science and Technology’s guidelines.

Setting [10] is: 2.5 and 5 mg/kg/d intraperitoneal, 14 days.
Where [11] appears, read: tumor tissue after 14 days treatment.

T1 sequence (P17174 whole entry): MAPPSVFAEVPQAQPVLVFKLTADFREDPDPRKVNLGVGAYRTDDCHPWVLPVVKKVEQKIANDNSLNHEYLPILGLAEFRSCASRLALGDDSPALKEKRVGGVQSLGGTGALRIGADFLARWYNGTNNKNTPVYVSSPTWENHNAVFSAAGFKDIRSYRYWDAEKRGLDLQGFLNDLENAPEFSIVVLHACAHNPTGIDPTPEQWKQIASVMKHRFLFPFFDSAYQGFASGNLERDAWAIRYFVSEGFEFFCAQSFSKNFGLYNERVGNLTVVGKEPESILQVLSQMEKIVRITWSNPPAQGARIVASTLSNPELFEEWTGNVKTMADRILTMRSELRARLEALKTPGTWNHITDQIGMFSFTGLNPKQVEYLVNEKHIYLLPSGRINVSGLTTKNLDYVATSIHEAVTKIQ

As usually defined, the IC50 is the concentration needed to halve the response being measured. Turning to `CO[C@H]1OC(=O)C(c2ccc(O)cc2)=C1Cc1ccc(O)c(CC=C(C)C)c1` [Compound 5, (+)-asperteretone B], the IC50 at GOT1 [1] was 19.16 ± 0.15 µM.

For orientation: Kd means the constant that tells how readily two partners part at equilibrium. `CC(C)=CCc1cc(/C=C2\OC(=O)C(c3ccc(O)c(CC=C(C)C)c3)=C2O)ccc1O` [Compound 6, aspulvinone H]: on GOT1 [1], the 50% inhibitory concentration (IC50) came to 5.91 ± 0.04 µM. Further, the Kd on GOT1 [2] came to 2.14 ± 0.47 µM. Moreover, the IC50 in data set [3] fell in the range of 6.32 to 10.5 µM. Besides, in data set [4], the half-inhibitory concentration (IC50) at 48 h was over 100 µM. This compound yielded an apoptosis induction rate in the data set on SW1990 cells [5] (SW1990, 10 µM) of 9.5%. Besides, the apoptosis induction rate with SW1990 cells [5] (SW1990, 40 µM) turned out to be 80.2%. In the data set on SW1990 cells [6] (SW1990, 10 µM), the “proportion of S-phase cells” value stood at 32.5% and the “proportion of cells in G0/G1 phase” value is 59.4%. Also, in the data set on SW1990 cells [6] (SW1990, 20 µM), the “proportion of S-phase cells” value worked out at 38.6% and the “proportion of cells in G0/G1 phase” value is reported as 48.6%. In addition, in the data set on SW1990 cells [6] (SW1990, 40 µM), the “proportion of S-phase cells” value is given as 43.9% and the “proportion of cells in G0/G1 phase” value was determined as 43.5%. Also, the “change in G2/M phase” value in the data set on SW1990 cells [6] (SW1990, high-dose AH) is “only a slight increase”. For the same compound, in the data set on SW1990 cells [7], the “content of Asp” value is “increasing”, the “content of Mal” value is on record as “reduced”, the “content of OAA” value is on record as “reduced” and the “ratio of NADPH/NADP+” value is “remarkably decreased”. For the same compound, the “intracellular ROS level” value with SW1990 cells [8] was “positively correlated”. Also, the “proliferation and migration (EDU staining, wound healing)” value with SW1990 cells [9] is “anti-proliferative effect”. Also, in the data set with SW1990 xenografts (setting [10]), the “body weight of the mice” value is “no significant changes” and the “histomorphology of the mice” value was “no significant changes”. The “tumor volume vs control group” value in the data set on SW1990 xenografts (2.5 and 5 mg/kg/d intraperitoneal, 14 days, CB-17/SCID mice) is “significantly smaller”. Also, in the data set on SW1990 xenografts (setting [11]), the “tumor tissue Asp” value is “increased”, the “tumor tissue Gln” value is “increased”, the “tumor tissue Mal” value is recorded as “decreased” and the “tumor tissue OAA” value is “decreased”. In addition, in the data set on SW1990 xenografts (setting [11]), the “tumor tissue proportion of NADPH/NADP+” value is given as “decrease”.

For `COC(=O)[C@]1(Cc2ccc(O)c(CC=C(C)C)c2)OC(=O)C(O)=C1c1ccc(O)c(CC=C(C)C)c1` [Compound 12, (+)-3′,3′-di-(dimethylallyl)-butyrolactone II], on GOT1 [1], the concentration for half-maximal inhibition (IC50) was 26.38 ± 0.1 µM.
